# From patent US20220370546A1, “PEPTIDE, COMPOSITION, AND METHOD FOR TREATING, PREVENTING, OR AMELIORATING MOOD DISORDER” (KYOTO UNIVERSITY, priority 2019, published 2022)
# System: ddY mice
# Test: Tail suspension test (evaluation of motivation-enhancing effect)
# Format: in vivo
# Details: oral, in saline, n=5; 0.2 μmol/kg body weight; tail suspension test 30 minutes after administration
# Method: Each of the prepared peptides was administered to mice (ddY mice (5-week-old male mice 24 to 28 g in body weight)) by the method shown below. The mice were then subjected to a tail suspension test for the evaluation of a motivation-enhancing effect.
# Each peptide was dissolved in saline. The solution was orally administered to mice (n=5) such that each of peptides 3, 4, and 8 was administered in a dose of 0.3 mg/kg body weight and each of peptides 1, 2, 5, 6, and 7 was administered in a dose of 0.2 μmol/kg body weight. Control mice (n=5) were orally administered with only saline. Each of the mice was subjected to a tail suspension test in which the peptide of the present invention was evaluated for its efficacy to enhance motivation.
# Thirty minutes after the administration of the peptide, each mouse was suspended with its tail fixed 30 cm above the floor. Subsequently, during a period of 6 minutes from the start of the test (0 minutes), the time (immobility time) during which the mouse remained in a motionless state, observed after the start of escape behavior, was measured, and the measurements were averaged. The motionless state is known as “despair state”. […] This means that materials effective in enhancing motivation in this test may be effective in treating, preventing, or ameliorating mood disorders. […]
row,Substance,motivation-enhancing effect
1,QSQ [Peptide 1],particularly high level of motivation-enhancing effect
2,SQK [Peptide 2],particularly high level of motivation-enhancing effect
